Experimental data as given in patent US11690828B2, “Treatment of CNS diseases with sGC stimulators” (Cyclerion Therapeutics, Inc., priority 2016, dated 2023).

Assays:
rats [1] = test: Kaolin - gait score; assay type: in vivo, rat; details: Compound I-2 p.o. 10 mg/kg; 120 minutes after treatment
Protocol: Kaolin. Induction: In rats, unilateral arthritis was induced by an intra-articular injection of a 10% kaolin suspension into the knee joint of the right hind paw under gas anesthesia (3.5% isoflurane/3 L/min). Gait score: The gait score will be evaluated 3 h 30 min after kaolin administration by:
2: intermittent raising of the paw
(§1) Testing: 120 minutes after treatment. N=4/model/test. Results are expressed for each group as a percentage of activity calculated from the mean value of the vehicle-treated animals and compared to naïve animals, control paw, or cut-off value, depending on the test.

rats [2] = test: Brennan model - electronic Von Frey test; assay type: in vivo, rat; details: Compound I-2 p.o. 10 mg/kg; 120 minutes after treatment
Description: Brennan Model. Surgery: Surgery was done under gas anesthesia (2.5% isoflurane/3 L/min). For all rats, the plantar aspect of the left hind paw was exposed and a 1 cm longitudinal incision was made using a surgical blade, through the skin and fascia of the plantar aspect of the foot, starting 0.5 cm from the proximal edge of the heel and extending toward the toes. The plantaris muscle was elevated and incised longitudinally whereas the insertions remained intact. After hemostasis with gentle pressure, the skin was stitched up with two sutures. After surgery, animals recovered in their cages.
Electronic Von Frey Test. Tactile allodynia was assessed using the electronic Von Frey test 24 h after surgery. The test requires the application of an increasing pressure onto the plantar aspect of the hind paws. The apparatus exerted a steady force on the hind paws. Reaction thresholds were determined as the pressure (g) required to elicit paw withdrawal. Each reaction threshold measurement was repeated three times for both hind paws with intervals of approximately 2 to 3 mins.
as §1

rats [3] = test: Oxaliplatin - acetone test (reaction time); assay type: in vivo, rat; details: Compound I-2 p.o. 10 mg/kg; 120 minutes after treatment
Protocol: Oxaliplatin. Induction: Acute peripheral neuropathy was induced by a single intraperitoneal injection of oxaliplatin (6 mg/kg, i.p) 30 hours before testing. Acetone test: Cold allodynia was measured using the acetone test. In this test, the latency of hind paw withdrawal was measured after application of a drop of acetone (50 μL) to the plantar surface of both hind paws three times for both hind paws alternatively with intervals of approximately 2-3 min.
as §1

CREB = test: pCREB phosphorylation in rat primary neurons; assay type: cell-based; details: Primary neuron, 0.5 h, 30 μM DETA-NONOate, 30 min, 95% confidence interval 0.07 nM to 4.44 nM, read-out: EC50, phosphorylation of CREB at Ser133
Protocol: Compounds. Compound I-5 was dissolved in DMSO as a 10 mM solution and stored at −20° C. To achieve desired test concentrations, stock concentrations were serially diluted into DMSO and then diluted to the appropriate concentration in assay buffer.
Rat primary neurons culture. Neurons were isolated from Sprague Dawley rat embryos on embryonic day 18 (E18). Approximately 10 embryos were obtained from each rat, and whole brains were isolated from the embryos. Hippocampus and cortex were dissected from the brains under a stereoscopic microscope using two pairs of fine tweezers. The meninges were carefully removed. After dissection, the tissues were chopped and washed gently once with 10 mL of Ca^2+ and Mg^2+ free Hank's solution (HBSS, Corning cat #21-022-CM) in a 15-mL conical tube. After washing, 5 mL of a solution of 0.25% trypsin (Invitrogen cat #15090-046) and 0.1% deoxyribonuclease I (DNase I, Sigma cat #DN-25) were added to the tissues in the tube, which were then incubated at 37° C. for 15 min. […]
Assay Conditions. […] Medium was removed and cell were lysed and assay was performed according to Cisbio protocol (phospho-CREB (Ser133) catalog #64CREPEG) and the plate was read using Envision instrument (PerkinElmer).
Data Analysis. Data were analyzed with a 4-parameter fit (log(agonist) vs. response—variable slope) using GraphPad Prism Software v.7. […]

Fc1ccccc1Cn1nc(-c2nc(C(F)(F)F)n[nH]2)c2cccnc21 [Compound I-2]
% of activity vs. vehicle, kaolin gait score (rats [1]): 88%
% of activity vs. vehicle, Brennan model electronic Von Frey test (rats [2]): 16%
% of activity vs. vehicle, oxaliplatin acetone test (reaction time) (rats [3]): 127%

FC(F)(F)c1n[nH]c(-c2nc(Cc3cncnc3)c3ccccn23)n1 [Compound I-5]
EC50 (CREB): 0.55 nM
